Data: EP4818178A1, “PREPARATION AND USE OF PYRIMIDOTHIOPYRANONE KRAS MUTANT PROTEIN INHIBITOR” (Ya Therapeutics Inc, priority 2024, dated 2025)

These compounds were tested against KRasG12D (Homo sapiens, UniProt P01116, G12D) (assay: KRAS inhibitory activity test, TR-FRET (inhibition of binding of KRasG12D to GTP, SOS/GTP nucleotide exchange)). Settings: read-out: IC50 values of the compounds for inhibiting KRAS enzymes, G12D.
Assay type: biochemical
Experimental: • 1. […] Reagent Preparation: • a. Storage Reagents:
Prepare a 1L solution by mixing 20mL of 1000mM HEPES, 20mL of 500mM EDTA, 10mL of 5M sodium chloride, 0.1mL of 100% Tween 20, and 949.9mL of water. Sterilize by filtration and store at 4°C.
Prepare a 1L solution by mixing 20mL of 1000mM HEPES, 10mL of 1000mM magnesium chloride, 30mL of 5M sodium chloride, 0.05mL of 100% Tween 20, and 939.95mL of water. Sterilize by filtration and store at 4°C. 3) KRAS/Bodipy GDP/Tb-SA Mixture: Mix 9.5 µL of 95 µM KRasG12D protein with 440.5 µL of KRAS nucleotide exchange buffer. Incubate at room temperature for 1 hour. Then, mix with 8.4 µL of 17.9 µM Tb-SA, 1.8 µL of 5 mM Bodipy GDP, and 9539.8 µL of KRAS experimental buffer to prepare […]. After mixing, incubate at room temperature for 6 hours and store at -80°C.
• 1) KRAS Enzyme Solution: Mix 73.3 µL of KRAS/Bodipy GDP/Tb-SA mixture with 2126.7 µL of KRAS experimental buffer to prepare a 2200 µL solution. • 2) SOS/GTP Mixture
c. Experimental Procedure: Mix 1.59 µL of 166 µM SOS protein with 198 µL of 100 mM... GTP and 0.41 µL KRAS buffer were prepared to a 2200 µL solution. The stock solution concentration of the control compound was 1 mM, and the stock solution concentration of the test compound was 10 mM. 9 µL of the control compound and the test compound were transferred to a 384-LDV plate. The compound on the LDV plate was 3-fold diluted 10-point using Bravo. 9 nL of the compound on the LDV plate was transferred to the experimental plate using ECHO. 3 µL of a 3 nM Kras/0.5 nM TB-SA/30 nM BodipyGDP mixture and 3 µL of Ras buffer were added to each well of the experimental plate using a Dragonfly autopilot. The plate was centrifuged at 1000 rpm for 1 minute. The plate was incubated at room temperature for 1 hour. 3 µL of 120 nM SOS/9 mM KRAS buffer was added to each well of the experimental plate using a Dragonfly autopilot. The […] was centrifuged at 1000 rpm for 1 minute; the plate was incubated at room temperature for 1 hour; the plate was read and the data were recorded using Envision; the data were analyzed using Excel and Xlfit to calculate the IC50of the test compound. "++++" indicates IC50≤ 10 nM; "+++" indicates 10 nM < IC50≤ 100 nM; "++" indicates 100 nM < IC50≤ 2000 nM; "+" indicates 2000 nM < IC50.

Q: How did the IC50 turn out when Cc1cc(N)c(F)c([C@@H]2Cc3nc(OC[C@@]45CCCN4C[C@H](F)C5)nc(N4C[C@H]5CC[C@@H](C4)N5)c3CS2(=O)=O)c1C(F)(F)F [Compound 38A, (7S)-7-(3-amino-2-fluoro-5-methyl-6-(trifluoromethyl)phenyl)-4-((1R,5S)-3,8-diazabicyclo[3.2.1]octane-3-yl)-2-(((2R,7AS)-2-fluorotetrahydro-1H-pyrrolazin-7a(5H)-yl)methoxy)-7,8-dihydro-5H-thiopyrano[4,3-d]pyrimidine 6,6-Dioxide] was run?
A: The IC50 was no more than 0.01 µM.

Q: Which IC50 does the source give for Cc1cc(N)c(F)c([C@@H]2Cc3nc(OC[C@@]45CCCN4C[C@H](F)C5)nc(N4C[C@H]5CC[C@@H](C4)N5)c3CS2(=O)=O)c1C(F)(F)F [Compound 36A, (7S)-7-(3-amino-2-fluoro-5-methyl-6-(trifluoromethyl)phenyl)-4-((1R,5S)-3,8-diazabicyclo[3.2.1]octane-3-yl)-2-(((2R,7AS)-2-fluorotetrahydro-1H-pyrrolazin-7a(5H)-yl)methoxy)-7,8-dihydro-5H-thiopyrano[4,3-d]pyrimidine 6,6-Dioxide] here?
A: The IC50 was no more than 0.01 µM.

Q: Cc1cc(N)nc([C@H]2Cc3nc(OC[C@@]45CCCN4C[C@H](F)C5)nc(N4C[C@H]5CC[C@@H](C4)N5)c3CS2(=O)=O)c1C(F)(F)F [Compound 3B, (7R)-7-(6-amino-4-methyl-3-(trifluoromethyl)pyridin-2-yl)-4-((1R,5S)-3,8-diazabicyclo[3.2.1]octane-3-yl)-2-(((2R,7AS)-2-fluorotetrahydro-1H-pyrrolazin-7a(5H)-yl)methoxy)-7,8-dihydro-5H-thiopyrano[4,3-d]pyrimidine 6,6-Dioxide] was tested. Which IC50 did it give?
A: Its IC50 is no more than 0.01 µM.

Q: With Cc1cc(N)nc([C@@H]2Cc3nc(OC[C@@]45CCCN4CC(=CF)C5)nc(N4CC5CCC(C4)N5)c3CS2(=O)=O)c1C(F)(F)F [Compound 19A, (7S)-7-(6-amino-4-methyl-3-(trifluoromethyl)pyridin-2-yl)-2-(((S)-2-(fluoromethylene)tetrahydro-1H-pyrrolazin-7a(5H)-yl)methoxy)-4-(3,8-diazabicyclo[3.2.1]octane-3-y 1)-7,8-dihydro-5H-thiopyrano[4,3-d]pyrimidine-6,6-dioxide] as the compound, how does the IC50 read?
A: Its IC50 is no more than 0.01 µM.

Q: For Cc1cc(N)cc(C2Cc3nc(OC[C@@]45CCCN4C/C(=C\F)C5)nc(N4CC5CCC(C4)N5)c3CS2(=O)=O)c1C(F)(F)F (stereo partly shown) [Compound 35], which IC50 is on record?
A: The IC50 was no more than 0.01 µM.

Q: With CC#Cc1cc(N)c(F)c(C2Cc3nc(OC[C@@]45CCCN4C[C@H](F)C5)nc(N4CC5CCC(C4)N5)c3CS2(=O)=O)c1C(F)(F)F (stereo partly drawn) [Compound 21, 7-(3-amino-2-fluoro-5-(prop-1-yn-1-yl)-6-(trifluoromethyl)phenyl)-4-(3,8-diazabicyclo[3.2.1]octane-3-yl)-2-(((2R,7AS)-2-fluorotetrahydro-1H-pyrrolazin-7a(5H)-yl)methoxy)-7,8-dihydro-5H-thiopyrano[4,3-d]pyrimidine-6,6-dioxide] as the compound, how does the IC50 read?
A: The IC50 was no more than 0.01 µM.

Q: Cc1cc(N)nc(C2Cc3nc(OC[C@@]45CCCN4CC(=C(F)F)C5)nc(N4CC5CCC(C4)N5)c3CS2(=O)=O)c1C(F)(F)F (stereo partly drawn) [Compound 18, 7-(6-amino-4-methyl-3-(trifluoromethyl)pyridin-2-yl)-2-(((S)-2-(difluoromethylene)tetrahydro-1H-pyrrolazin-7a(5H)-yl)methoxy)-4-(3,8-diazabicyclo[3.2.1]octane-3-yl)-7,8-dihydro-5H-thiopyrano[4,3-d]pyrimidine-6,6-dioxide] was tested. Which IC50 did it give?
A: Its IC50 is no more than 0.01 µM.

Q: How did the IC50 turn out when Cc1cc(N)c(F)c([C@@H]2Cc3nc(OC[C@@]45CCCN4C[C@H](F)C5)nc(N4C[C@H]5CC[C@@H](C4)N5)c3CS2(=O)=O)c1C(F)(F)F [Compound 1A, (7S)-7-(3-amino-2-fluoro-5-methyl-6-(trifluoromethyl)phenyl)-4-((1R,5S)-3,8-diazabicyclo[3.2.1]octane-3-yl)-2-(((2R,7AS)-2-fluorotetrahydro-1H-pyrrolazin-7a(5H)-yl)methoxy)-7,8-dihydro-5H-thiopyrano[4,3-d]pyrimidine 6,6-Dioxide] was run?
A: Its IC50 is no more than 0.01 µM.

Q: Which IC50 does the source give for Cc1cc(O)c(F)c([C@@H]2Cc3nc(OC[C@@]45CCCN4C[C@H](F)C5)nc(N4C[C@H]5CC[C@@H](C4)N5)c3CS2(=O)=O)c1C(F)(F)F [Compound 2A, (7S)-4-((1R,5S)-3,8-diazabicyclo[3.2.1]octane-3-yl)-7-(2-fluoro-3-hydroxy-5-methyl-6-(trifluoromethyl)phenyl)-2-(((2R,7AS)-2-fluorotetrahydro-1H-pyrrolazin-7a(5H)-yl)methoxy)-7,8-dihydro-5H-thiopyrano[4,3-d]pyrimidine-6,6-dioxide] here?
A: The IC50 was 0.01 to 0.1 µM.

Q: How did the IC50 turn out when C=C1CN2CCC[C@@]2(COc2nc3c(c(N4CC5CCC(C4)N5)n2)CS(=O)(=O)C(c2c(F)c(N)cc(C)c2C(F)(F)F)C3)C1 (stereo partly drawn) [Compound 11, 7-(3-amino-2-fluoro-5-methyl-6-(trifluoromethyl)phenyl)-4-(3,8-diazabicyclo[3.2.1]octane-3-yl)-2-(((S)-2-(methylene)tetrahydro-1H-pyrrolazin-7a(5H)-yl)methoxy)-7,8-d ihydro-5H-thiopyrano[4,3-d]pyrimidine-6,6-dioxide] was run?
A: Its IC50 is no more than 0.01 µM.

Q: With “7-(3-amino-2-fluoro-5-methyl-6-(trifluoromethyl)phenyl)-4-(1R,5S)-3,8-diazabicyclo [3.2.1]octane-3-yl)-2-(((2R,7AS)-2-fluorotetrahydro-1H-pyrrolazin-7a(5H)-yl)methox y)-7,8-dihydro-5H-thiopyrano[4,3-d]pyrimidine-6,6-dioxide [Compound 36]” as the compound, how does the IC50 read?
A: Its IC50 is no more than 0.01 µM.

Q: Which IC50 does the source give for Cc1cc(N)c(F)c([C@@H]2Cc3nc(OC[C@@]45CCCN4C[C@H](F)C5)nc(N4C[C@H]5CC[C@@H](C4)N5)c3CS2(=O)=O)c1C(F)(F)F [Compound 33A, (7S)-7-(3-amino-2-fluoro-5-methyl-6-(trifluoromethyl)phenyl)-4-((1R,5S)-3,8-diazabicyclo[3.2.1]octane-3-yl)-2-(((2R,7AS)-2-fluorotetrahydro-1H-pyrrolazin-7a(5H)-yl)methoxy)-7,8-dihydro-5H-thiopyrano[4,3-d]pyrimidine 6,6-Dioxide] here?
A: The IC50 was no more than 0.01 µM.

Q: For Cc1cc(N)c(F)c([C@H]2Cc3nc(OC[C@@]45CCCN4C[C@H](F)C5)nc(N4C[C@H]5CC[C@@H](C4)N5)c3CS2(=O)=O)c1C(F)(F)F [Compound 1B, (7R)-7-(3-amino-2-fluoro-5-methyl-6-(trifluoromethyl)phenyl)-4-((1R,5S)-3,8-diazabicyclo[3.2.1]octane-3-yl)-2-(((2R,7AS)-2-fluorotetrahydro-1H-pyrrolazin-7a(5H)-yl)methoxy)-7,8-dihydro-5H-thiopyrano[4,3-d]pyrimidine 6,6-Dioxide], which IC50 is on record?
A: The IC50 was 0.01 to 0.1 µM.

Q: With Cc1cc(N)c(F)c(C2Cc3nc(OC[C@@]45CCCN4CC(=CF)C5)nc(N4CC5CCC(C4)N5)c3CS2(=O)=O)c1C(F)(F)F (stereo partly drawn) [Compound 10, 7-7-(3-amino-2-fluoro-5-methyl-6-(trifluoromethyl)phenyl)-4-(3,8-diazabicyclo[3.2.1]octane-3-yl)-2-(((S)-2-(fluoromethylene)tetrahydro-1H-pyrrolazin-7a(5H)-yl)methoxy) -7,8-dihydro-5H-thiopyrano[4,3-d]pyrimidine-6,6-dioxide] as the compound, how does the IC50 read?
A: The IC50 was no more than 0.01 µM.

Q: CC#Cc1cc(N)c(F)c([C@@H]2Cc3nc(OC[C@@]45CCCN4CC(=C(F)F)C5)nc(N4CC5CCC(C4)N5)c3CS2(=O)=O)c1C(F)(F)F [Compound 23A, (7S)-7-(3-amino-2-fluoro-5-(prop-1-yn-1-yl)-6-(trifluoromethyl)phenyl)-4-(3,8-diazabicyclo[3.2.1]octane-3-yl)-2-(((S)-2-(difluoromethylene)tetrahydro-1H-pyrrolazin-7a(5H)-yl)methoxy)-7,8-dihydro-5H-thiopyrano[4,3-d]pyrimidine-6,6-dioxide] was tested. Which IC50 did it give?
A: Its IC50 is no more than 0.01 µM.

Q: How did the IC50 turn out when Cc1cc(N)nc(C2Cc3nc(OC[C@@]45CCCN4CC(=CF)C5)nc(N4CC5CCC(C4)N5)c3CS2(=O)=O)c1C(F)(F)F (stereo partly drawn) [Compound 19, 7-(6-amino-4-methyl-3-(trifluoromethyl)pyridin-2-yl)-2-(((S)-2-(fluoromethylene)tetrahydro-1H-pyrrolazin-7a(5H)-yl)methoxy)-4-(3,8-diazabicyclo[3.2.1]octane-3-yl)-7,8-dihydro-5H-thiopyrano[4,3-d]pyrimidine-6,6-dioxide] was run?
A: The IC50 was no more than 0.01 µM.
